One assay deals with Dyrk1A (Homo sapiens, UniProt Q13627). The assay is described as follows: Dyrk1A inhibition. It counts as biochemical. To be noted: data not shown.
Assay [1] deals with T1, Clk4 (Homo sapiens, UniProt Q9HAZ1). The assay is described as follows: bioluminescent, luciferase-based Clk4 assay.
The target in another assay is Clk1 (Homo sapiens, UniProt P49759). To be noted: cited from earlier work.
In assay [2] the target is T1, Clk4. To be noted: cited from earlier work.

Bounds are passed on as bounds.

T1 sequence (Q9HAZ1 whole entry): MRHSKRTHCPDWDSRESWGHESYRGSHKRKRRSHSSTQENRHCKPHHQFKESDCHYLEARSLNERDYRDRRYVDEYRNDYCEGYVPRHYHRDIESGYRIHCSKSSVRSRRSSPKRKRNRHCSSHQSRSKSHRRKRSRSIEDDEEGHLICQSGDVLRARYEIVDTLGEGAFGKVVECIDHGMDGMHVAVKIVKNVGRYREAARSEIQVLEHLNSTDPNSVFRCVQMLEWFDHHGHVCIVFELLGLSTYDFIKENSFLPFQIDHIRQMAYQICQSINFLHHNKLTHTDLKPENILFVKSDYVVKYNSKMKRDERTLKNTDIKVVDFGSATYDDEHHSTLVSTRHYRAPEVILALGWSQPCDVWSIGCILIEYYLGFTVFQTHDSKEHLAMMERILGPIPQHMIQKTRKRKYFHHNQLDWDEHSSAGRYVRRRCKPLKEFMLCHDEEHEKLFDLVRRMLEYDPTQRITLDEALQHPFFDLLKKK
Chain of Clk1 (P49759 whole entry): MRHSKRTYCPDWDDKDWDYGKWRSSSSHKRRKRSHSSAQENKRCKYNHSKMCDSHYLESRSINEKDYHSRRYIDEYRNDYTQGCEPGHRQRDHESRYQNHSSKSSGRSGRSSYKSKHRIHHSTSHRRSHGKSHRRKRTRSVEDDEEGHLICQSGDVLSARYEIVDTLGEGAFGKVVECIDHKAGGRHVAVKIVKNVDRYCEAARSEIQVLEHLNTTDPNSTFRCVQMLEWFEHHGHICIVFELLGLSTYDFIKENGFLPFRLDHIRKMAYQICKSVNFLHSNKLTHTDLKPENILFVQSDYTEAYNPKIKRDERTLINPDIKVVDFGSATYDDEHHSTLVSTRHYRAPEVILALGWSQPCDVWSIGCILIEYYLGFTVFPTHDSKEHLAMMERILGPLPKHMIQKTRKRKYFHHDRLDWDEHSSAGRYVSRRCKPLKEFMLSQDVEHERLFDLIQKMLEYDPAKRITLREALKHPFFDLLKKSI

For `c1csc(CNc2ncnc3ccc(-c4ccc5c(c4)OCO5)cc23)c1` [compound 4], at Dyrk1A, the “inhibition of Dyrk1A” value is recorded as “potent inhibitors”. Further, the “activity versus numerous EGFR mutants” value in the assay on EGFR mutants is over 250 nM. The “enzyme inhibition in ATP dose response” value at Clk4 [1] (compound constant at 70 nM, high ATP concentrations (>200 μM), data not shown) is reported as “sharp decline in enzyme inhibition”. For the same molecule, at Clk4 [1] (compound constant at 70 nM, increasing dose of peptide, data not shown), the “potency in peptide dose response” value is reported as “did not effect the potency”. Moreover, the “change of potency with ATP concentration” value on Clk4 [1] (dose response at 1, 50, 100 μM ATP (Figure 4A)) is “loss in potency when ATP levels rise”. The “change of potency with peptide substrate concentration” value at Clk4 [1] (dose response at 50, 100, 200 μM peptide (Figure 4B)) is on record as “no affect on the compound potency”.

For the molecule `CCN1/C(=C/C(C)=O)Sc2ccc(OC)cc21` [compound 1], the “IC50 values versus Clk1” value at Clk1 was “low-nanomolar”. Also, the “IC50 values versus Clk4” value on Clk4 [2] was “low-nanomolar”.
